Reference: US20040127489A1, “Novel antipsychotic combination therapies and compositions useful therein” (priority 2002, published 2004)

What was measured:
[1] = system: α2 adrenergic receptor versus dopamine D2 receptor; conditions: literature; cited from earlier work
[2] = idazoxan 120 mg/day added to 1000 mg chlorpromazine equivalents of fluphenazine; Litman et al. 1996; cited from earlier work
D2 receptor = D2 receptor (Homo sapiens, UniProt P14416); conditions: Merck Manual 17th Edition; cited from earlier work
α2 autoreceptors = conditions: presynaptic; Martire et al. 1988; cited from earlier work
α2 adrenoreceptors = conditions: Martire et al. 1988; cited from earlier work
Wistar rats = assay: Conditioned avoidance response (CAR) behavior in rats; format: in vivo; conditions: rat CAR; adjunct treatment with idazoxan
Text: Food and water were available ad libitum.
Rats were trained and tested in a conventional, manually operated two-way active avoidance (shuttlebox) apparatus connected to a high resistance power supply. The box was divided into two compartments of equal size by a partition with one opening. Upon presentation of the 80 dB white noise conditioned stimulus (CS), the animals had 10 seconds to move from one compartment of the shuttlebox into the other. If the rat remained in the same compartment for more than 10 seconds, an intermittent electric shock (approx. 0.2 mA of 0.5-sec duration; intershock interval 2.5 sec), the unconditioned stimulus (UCS), was presented in the grid floor until an escape was performed. […] Intertrial intervals varied at random between 20 and 40 seconds. The following variables were recorded: avoidance (response to CS within 10 sec); escape (response to CS+UCS); escape failures (failure to respond); and intertrial crosses. The animals were trained for 3 consecutive days. Training sessions were run over 15 minutes. A final test session (7.5 minutes) was performed on the day immediately prior to the first experimental day, and only animals performing at the 100% correct level were assigned to the experiment. Experimental manipulations were always preceded by a pretest. […]

D2 receptor, sequence (P14416 whole entry): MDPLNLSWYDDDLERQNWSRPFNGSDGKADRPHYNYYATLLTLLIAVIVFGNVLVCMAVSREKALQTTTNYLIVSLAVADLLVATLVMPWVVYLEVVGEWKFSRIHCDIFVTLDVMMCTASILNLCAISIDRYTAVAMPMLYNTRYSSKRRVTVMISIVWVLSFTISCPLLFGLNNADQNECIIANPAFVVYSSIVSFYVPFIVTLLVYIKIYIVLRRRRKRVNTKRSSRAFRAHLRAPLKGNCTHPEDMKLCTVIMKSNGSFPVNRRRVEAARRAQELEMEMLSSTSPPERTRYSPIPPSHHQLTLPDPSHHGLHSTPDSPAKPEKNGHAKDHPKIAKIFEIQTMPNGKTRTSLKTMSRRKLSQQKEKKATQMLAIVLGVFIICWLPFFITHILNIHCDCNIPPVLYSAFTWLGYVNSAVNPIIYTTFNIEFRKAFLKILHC

## O=C1Cc2cc(CCN3CCN(c4nsc5ccccc45)CC3)c(Cl)cc2N1 [ziprasidone]
[1]
  fold less affinity for the α2 adrenergic receptor than for the dopamine D2 receptor: 100 fold

## c1ccc2c(c1)OCC(C1=NCCN1)O2 (racemic) [idazoxan, ±-2-(1,4-benzodioxan-2-yl)-d-imidazoline]
[2]
  clinical response: adequate clinical responses

## OCCOCCN1CCN(C2=Nc3ccccc3Sc3ccccc32)CC1 [quetiapine]
D2 receptor
  dose corresponding to 1000 mg chlorpromazine equivalents: 900 mg

## c1ccc2c(c1)OCC(C1=NCCN1)O2 (single isomer, unassigned; (+)) [(+)-idazoxan]
α2 autoreceptors
  affinity towards the α2 autoreceptors relative to (−) idazoxan: 40 times
α2 adrenoreceptors
  potency in inhibiting p-[3H]aminoclonidine binding relative to (−) idazoxan: 7-8 times

## Cc1cc2c(s1)Nc1ccccc1N=C2N1CCN(C)CC1 [olanzapine]
Wistar rats
  reduction of the olanzapine dose required for an effective antipsychotic effect through adjunct idazoxan: ~50%

## O=C1NCCN1CCN1CCC(c2cn(-c3ccc(F)cc3)c3ccc(Cl)cc23)CC1 [sertindole]
D2 receptor
  dose corresponding to 1000 mg chlorpromazine equivalents: 24 mg

## OCCN1CCN(CCCN2c3ccccc3Sc3ccc(C(F)(F)F)cc32)CC1 [fluophenazine, fluphenazine]
D2 receptor
  dose corresponding to 1000 mg chlorpromazine equivalents: 20 mg
